Test results reported in publication PMC3266667 (Frontiers in Pharmacology, 2012).
Like-named read-outs stand apart in the source and are kept apart here.

Biological target: hERG K+ channels (Homo sapiens, UniProt Q12809)
[1] = Patchliner, CHO-hERG cells, physiological temperature

Sequence of hERG K+ channels (Q12809 whole entry): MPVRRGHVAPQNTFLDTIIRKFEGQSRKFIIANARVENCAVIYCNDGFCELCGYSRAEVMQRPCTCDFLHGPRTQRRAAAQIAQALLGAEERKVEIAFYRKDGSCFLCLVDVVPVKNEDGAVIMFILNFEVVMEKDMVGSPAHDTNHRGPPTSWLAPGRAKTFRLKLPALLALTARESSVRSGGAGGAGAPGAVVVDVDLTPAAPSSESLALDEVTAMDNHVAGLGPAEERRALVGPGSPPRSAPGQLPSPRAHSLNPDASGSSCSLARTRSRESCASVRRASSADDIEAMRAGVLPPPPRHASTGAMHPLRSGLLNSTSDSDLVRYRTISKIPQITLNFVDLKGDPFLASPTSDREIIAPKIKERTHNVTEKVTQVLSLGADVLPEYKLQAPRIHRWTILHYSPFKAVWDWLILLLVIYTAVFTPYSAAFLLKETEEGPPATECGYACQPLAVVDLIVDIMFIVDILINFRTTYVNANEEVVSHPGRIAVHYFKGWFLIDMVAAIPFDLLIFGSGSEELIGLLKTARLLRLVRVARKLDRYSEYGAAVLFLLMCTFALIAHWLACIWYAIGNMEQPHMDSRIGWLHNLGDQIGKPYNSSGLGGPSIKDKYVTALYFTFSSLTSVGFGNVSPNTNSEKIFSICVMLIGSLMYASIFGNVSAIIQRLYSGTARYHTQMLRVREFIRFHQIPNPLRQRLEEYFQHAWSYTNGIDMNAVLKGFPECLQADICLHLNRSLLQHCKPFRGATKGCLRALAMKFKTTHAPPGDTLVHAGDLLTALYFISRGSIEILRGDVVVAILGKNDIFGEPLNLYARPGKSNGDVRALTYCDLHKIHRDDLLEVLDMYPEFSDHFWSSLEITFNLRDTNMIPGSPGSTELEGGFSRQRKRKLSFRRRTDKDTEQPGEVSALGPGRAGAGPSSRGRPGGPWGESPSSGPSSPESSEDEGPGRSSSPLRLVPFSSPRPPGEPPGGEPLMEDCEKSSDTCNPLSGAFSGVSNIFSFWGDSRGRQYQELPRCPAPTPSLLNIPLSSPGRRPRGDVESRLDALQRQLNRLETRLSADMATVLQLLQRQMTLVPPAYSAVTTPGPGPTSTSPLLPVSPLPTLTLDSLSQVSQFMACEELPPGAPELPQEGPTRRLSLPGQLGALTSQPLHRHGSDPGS

CC(C)NCC(O)c1ccc(NS(C)(=O)=O)cc1 (racemic) [D,L-Sotalol]
effect on the hERG current (in words): intermediate effect on the hERG current

C[C@H](CS)C(=O)N1CCC[C@H]1C(=O)O [Captopril]
effect on the hERG current (in words) [1]: did not affect the hERG current up to the highest concentration tested

COc1cc(N)c(Cl)cc1C(=O)NC1CCN(CCCOc2ccc(F)cc2)CC1OC (centres unmarked) [Cisapride]
effect on the hERG current (in words) (human): IC50 values in the low and mid-nanomolar range

CC(C)Cc1ccc(C(C)C(=O)O)cc1 (centres unmarked) [Ibuprofen]
effect on the hERG current (in words) [1]: did not affect the hERG current up to the highest concentration tested

Cc1cc2c(s1)Nc1ccccc1N=C2N1CCN(C)CC1 [Olanzapine]
effect on the hERG current (in words): intermediate effect on the hERG current
